From patent US20230041743A1, “1,8-NAPHTHYRIDIN-2-ONE COMPOUNDS FOR THE TREATMENT OF AUTOIMMUNE DISEASE” (Hoffmann-La Roche Inc., priority 2019, published 2023)

Molecular target: T1, human TLR8 (Homo sapiens, UniProt Q9NR97)
T1 construct: host or cells: HEK293 (HEK-Blue hTLR8)
T1 sequence (Q9NR97 27-1041): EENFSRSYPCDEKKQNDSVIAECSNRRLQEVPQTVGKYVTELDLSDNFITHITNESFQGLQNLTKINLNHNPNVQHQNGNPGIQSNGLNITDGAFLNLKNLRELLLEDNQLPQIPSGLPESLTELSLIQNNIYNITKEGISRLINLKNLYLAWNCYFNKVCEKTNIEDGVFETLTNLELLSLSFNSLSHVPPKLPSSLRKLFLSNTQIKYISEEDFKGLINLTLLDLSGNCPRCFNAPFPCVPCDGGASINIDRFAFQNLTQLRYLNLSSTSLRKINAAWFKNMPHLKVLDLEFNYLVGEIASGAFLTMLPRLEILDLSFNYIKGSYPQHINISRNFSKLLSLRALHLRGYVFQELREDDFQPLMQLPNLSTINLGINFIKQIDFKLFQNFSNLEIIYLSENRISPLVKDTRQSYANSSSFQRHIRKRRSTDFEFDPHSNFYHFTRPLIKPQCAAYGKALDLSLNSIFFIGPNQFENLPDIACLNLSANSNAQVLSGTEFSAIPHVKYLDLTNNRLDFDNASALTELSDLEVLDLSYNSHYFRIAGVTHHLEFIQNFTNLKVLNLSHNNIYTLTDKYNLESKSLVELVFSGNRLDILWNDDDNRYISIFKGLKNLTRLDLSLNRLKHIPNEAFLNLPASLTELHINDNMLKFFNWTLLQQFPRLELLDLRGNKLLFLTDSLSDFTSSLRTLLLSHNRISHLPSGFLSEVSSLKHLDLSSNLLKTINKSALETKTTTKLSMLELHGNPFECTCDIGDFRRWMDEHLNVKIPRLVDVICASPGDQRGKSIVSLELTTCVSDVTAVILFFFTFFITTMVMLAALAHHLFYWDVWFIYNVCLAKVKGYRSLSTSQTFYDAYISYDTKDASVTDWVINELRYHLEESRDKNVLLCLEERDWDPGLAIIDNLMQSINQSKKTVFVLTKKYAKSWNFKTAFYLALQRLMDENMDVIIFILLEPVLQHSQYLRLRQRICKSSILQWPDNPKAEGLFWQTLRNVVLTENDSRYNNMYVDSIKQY
Assay: HEK293-Blue-hTLR-8 cells assay (SEAP reporter, R848 stimulation)
Format: cell-based
Settings: HEK293-Blue-hTLR8 cells, R848 ligand, 20 hrs incubation; read-out: HEK/hTLR8 IC50
Source text: HEK293-Blue-hTLR-8 Cells Assay:
A stable HEK293-Blue-hTLR-8 cell line was purchased from InvivoGen (Cat. #: hkb-htlr8, San Diego, Calif., USA). These cells were originally designed for studying the stimulation of human TLR8 by monitoring the activation of NF-κB. A SEAP (secreted embryonic alkaline phosphatase) reporter gene was placed under the control of the IFN-β minimal promoter fused to five NF-κB and AP-1-binding sites. The SEAP was induced by activating NF-κB and AP-1 via stimulating HEK-Blue hTLR8 cells with TLR8 ligands. Therefore the reporter expression was declined by TLR8 antagonist under the stimulation of a ligand, such as R848, for incubation of 20 hrs. The cell culture supernatant SEAP reporter activity was determined using QUANTI-Blue™ kit (Cat. #: rep-qb1, Invivogen, San Diego, Ca, USA) at a wavelength of 640 nm, a detection medium that turns purple or blue in the presence of alkaline phosphatase.
HEK293-Blue-hTLR8 cells were incubated at a density of 250,000-450,000 cells/mL in a volume of 170 μL in a 96-well plate in Dulbecco's Modified Eagle's medium (DMEM) containing 4.5 g/L glucose, 50 U/mL penicillin, […], […], 2 mM L-glutamine, 10% (v/v) heat-inactivated fetal bovine serum with addition of 20 μL test compound in a serial dilution in the presence of final DMSO at 1% and 10 μL of 60 uM R848 in above DMEM, perform incubation under 37° C. in a CO2 incubator for 20 hrs. Then 20 μL of the supernatant from each well was incubated with 180 μL Quanti-blue substrate solution at 37° C. for 2 hrs and the absorbance was read at 620-655 nm using a spectrophotometer. The signaling pathway that TLR8 activation leads to downstream NF-κB activation has been widely accepted, and therefore similar reporter assay was modified for evaluating TLR8 antagonist.

Row | Structure (SMILES) | IC50 [nM]
1 | C[C@@H]1CN(c2cc(=O)n(C)c3ncccc23)C[C@@H]2c3ccc(N4CCOC5(CNC5)C4)cc3CN12 [Example 11, 4-[(4R,10bS)-4-methyl-8-(5-oxa-2,8-diazaspiro[3.5]nonan-8-yl)-3,4,6,10b-tetrahydro-1H-pyrazino[2,1-a]isoindol-2-yl]-1-methyl-1,8-naphthyridin-2-one] | 24.1
2 | C[C@@H]1CN(c2cc(=O)n(C)c3ncccc23)C[C@@H]2c3ccc(N4CCC[C@](C)(N)C4)cc3CN12 [Example 15, 4-[(4R,10bS)-8-[(3S)-3-amino-3-methyl-1-piperidyl]-4-methyl-3,4,6,10b-tetrahydro-1H-pyrazino[2,1-a]isoindol-2-yl]-1-methyl-1,8-naphthyridin-2-one] | 7.2
3 | COC[C@@H]1CNCCN1c1ccc2c(c1)CN1[C@H](C)CN(c3cc(=O)n(C)c4ncccc34)C[C@H]21 [Example 10, 4-[(4R,10bS)-8-[(2S)-2-(methoxymethyl)piperazin-1-yl]-4-methyl-3,4,6,10b-tetrahydro-1H-pyrazino[2,1-a]isoindol-2-yl]-1-methyl-1,8-naphthyridin-2-one] | 4
4 | C[C@@H]1CN(c2cc(=O)n(C)c3ncccc23)C[C@@H]2c3ccc(N4C[C@H]5C[C@@H]4CN5)cc3CN12 [Example 20, 4-[(4R,10bS)-8-[(1R,4R)-2,5-diazabicyclo[2.2.1]heptan-2-yl]-4-methyl-3,4,6,10b-tetrahydro-1H-pyrazino[2,1-a]isoindol-2-yl]-1-methyl-1,8-naphthyridin-2-one] | 4.5
5 | C[C@@H]1CN(c2cc(=O)n(C)c3ncccc23)C[C@@H]2c3ccc(N4CCOC[C@H](N)C4)cc3CN12 [Example 22, 4-[(4R,10bS)-8-[(6R)-6-amino-1,4-oxazepan-4-yl]-4-methyl-3,4,6,10b-tetrahydro-1H-pyrazino[2,1-a]isoindol-2-yl]-1-methyl-1,8-naphthyridin-2-one] | 4.9
6 | C[C@@H]1CN(c2cc(=O)n(C)c3ncccc23)C[C@@H]2c3ccc([C@@H]4C[C@H]5COC[C@@H](C4)N5)cc3CN12 [Example 28B, 4-[(4R,10bS)-4-methyl-8-(exo-3-oxa-9-azabicyclo[3.3.1]nonan-7-yl)-3,4,6,10b-tetrahydro-1H-pyrazino[2,1-a]isoindol-2-yl]-1-methyl-1,8-naphthyridin-2-one] | 4.4
7 | C[C@@H]1CN(c2cc(=O)n(C)c3ncccc23)C[C@@H]2c3ccc(C4CCNC4)cc3CN12 (stereo partly drawn) [Example 26, 4-[(4R,10bS)-4-methyl-8-pyrrolidin-3-yl-3,4,6,10b-tetrahydro-1H-pyrazino[2,1-a]isoindol-2-yl]-1-methyl-1,8-naphthyridin-2-one] | 6.5

The next compounds have a lower IC50 than those just listed; values first:

Row | IC50 [nM] | Structure (SMILES)
8 | 1 | C[C@@H]1CN(c2cc(=O)n(C)c3ncccc23)C[C@@H]2c3ccc(OCCN(C)C)cc3CN12 [Example 23, 4-[(4R,10bS)-8-[2-(dimethylamino)ethoxy]-4-methyl-3,4,6,10b-tetrahydro-1H-pyrazino[2,1-a]isoindol-2-yl]-1-methyl-1,8-naphthyridin-2-one]
9 | 1 | C[C@@H]1CN(c2ccc3c(c2)CN2[C@H](C)CN(c4cc(=O)n(C)c5ncccc45)C[C@H]32)CCN1 [Example 14, 4-[(4R,10bS)-4-methyl-8-[(3R)-3-methylpiperazin-1-yl]-3,4,6,10b-tetrahydro-1H-pyrazino[2,1-a]isoindol-2-yl]-1-methyl-1,8-naphthyridin-2-one]
10 | 1.3 | C[C@@H]1CN(c2cc(=O)n(C)c3ncccc23)C[C@@H]2c3ccc(N4CCN[C@@H](C)C4)cc3CN12 [Example 13, 4-[(4R,10bS)-4-methyl-8-[(3S)-3-methylpiperazin-1-yl]-3,4,6,10b-tetrahydro-1H-pyrazino[2,1-a]isoindol-2-yl]-1-methyl-1,8-naphthyridin-2-one]
11 | 2.5 | C[C@@H]1CN(c2cc(=O)n(C)c3ncccc23)C[C@@H]2c3ccc(N4CCC(C)(N)CC4)cc3CN12 [Example 18, 4-[(4R,10bS)-8-(4-amino-4-methyl-1-piperidyl)-4-methyl-3,4,6,10b-tetrahydro-1H-pyrazino[2,1-a]isoindol-2-yl]-1-methyl-1,8-naphthyridin-2-one]
12 | 1.4 | C[C@@H]1CN(c2cc(=O)n(C)c3ncccc23)C[C@@H]2c3ccc(C4CCNCC4)cc3CN12 [Example 24, 4-[(4R,10bS)-4-methyl-8-(4-piperidyl)-3,4,6,10b-tetrahydro-1H-pyrazino[2,1-a]isoindol-2-yl]-1-methyl-1,8-naphthyridin-2-one]
